Source: patent publication US5278324A, “Water soluble derivatives of taxol” (Virginia Tech Intellectual Properties, Inc., priority 1991, dated 1994)
Structures can show the parent of a compound that is named as a salt.

Assays:
[1] = Deutsch et al. 1989; cited from earlier work
[2] = cited from earlier work
[3] = test system: cell culture; conditions: Magri and Kingston 1988; cited from earlier work
[4] = in vivo conditions; cited from earlier work
[5] = Magri and Kingston 1988; cited from earlier work
[6] = Magri and Kingston; cited from earlier work
[7] = cited from earlier work; remark: listed apart in the source
[8] = Water solubility by partition between 1-octanol and water, relative to taxol; conditions: for times more water soluble than taxol / solubilities greater than taxol: 1-octanol/water partition; for water solubility (in words): versus taxol or the other derivatives; for solubilities greater than taxol: Table 9 discussion
Procedure: Water solubilities for all compounds were determined by the partition coefficient between 1-octanol and water. Octanol saturated with distilled water and distilled water saturated with octanol were used for the solubility determinations.
Taxol's water solubility was determined by dissolving 1.6 mg of taxol in 10 ml of distilled water saturated with 1-octanol in a 60 ml separatory funnel, and 10 ml of 1-octanol saturated with distilled water was then added. The funnel was shaken, and allowed to stand for about 30 minutes until the organic and aqueous phases separated. UV absorption measurements at 228 nm were made of the aqueous layer and/or octanol layer, with the octanol layer being diluted 5 times before measurement.

[9] = Biological testing of 2'-[(3-sulfo-1-oxopropyl)oxy]taxol sodium salt
[10] = test system: P-388; conditions: compared with taxol; cited from earlier work
[11] = Stability of 2'-γ-aminobutyryltaxol formate (proton NMR and TLC); type: physicochemical; conditions: after a few hours
Description: 2'-γ-aminobutyryltaxol formate was synthesized by coupling taxol with N-carbobenzyloxy (CBZ) -γ-aminobutyric acid followed by deprotection of the amine. Taxol was reacted with N-CBZ-γ- aminobutyric acid using dicyclohexyl-carbodiimide (DCC) as the coupling agent. The resulting 2'-NCBZ-γ-aminobutyryl taxol was produced in 75% yield after purification via preparative TLC with silica gel and 3/2 hexane/ethyl acetate. […] Deprotection of the 2'-N-CBZ-γ-aminobutyryltaxol was effected using 5% Pd/C as a catalyst and formic acid as a hydrogen source. […] NMR confirmed the synthesis of the 2'-γ-aminobutyryl taxol formate. […] This instability precluded further consideration of 2'-γ-amino-butyryltaxol formate as a prodrug form of taxol.

[12] = Aqueous solubility (statements in words); type: physicochemical; conditions: versus the neutral form
[13] = test system: acute leukemia and melanoma; conditions: preliminary studies; cited from earlier work
[14] = test system: drug-refractory ovarian cancer; conditions: McGuire et al. 1989; cited from earlier work
[15] = test system: tubulin; conditions: cited from earlier work
[16] = test system: several tumor systems; conditions: background statement; cited from earlier work
[17] = cited from earlier work; remark: listed apart in the source

SMILES: CC(=O)O[C@H]1C(=O)[C@@]2(C)[C@H]([C@H](OC(=O)c3ccccc3)[C@]3(O)C[C@H](OC(=O)[C@H](OC(=O)CCCC(=O)NCCCN(C)C)[C@@H](NC(=O)c4ccccc4)c4ccccc4)C(C)=C1C3(C)C)[C@]1(OC(C)=O)CO[C@@H]1C[C@@H]2O
- antitumor activity [1]: good solubility and bioactivity
- solubility ([2]; Deutsch et al. 1989): good solubility

SMILES: CC(=O)O[C@H]1C(=O)[C@]2(C)[C@@H](OC(C)=O)C[C@H]3OC[C@@]3(OC(C)=O)[C@H]2[C@H](OC(=O)c2ccccc2)[C@]2(O)C[C@H](OC(=O)[C@H](OC(C)=O)[C@@H](NC(=O)c3ccccc3)c3ccccc3)C(C)=C1C2(C)C [2',7-diacetyltaxol]
- activity in a cell culture bioassay [3]: both showed activity in a cell culture bioassay
- hydrolysis of acyl substituents at the 2' position [4]: readily hydrolyzed under in vivo conditions

SMILES: CC(=O)O[C@H]1C(=O)[C@@]2(C)[C@H]([C@H](OC(=O)c3ccccc3)[C@]3(O)C[C@H](OC(=O)[C@H](O[Si](C)(C)C(C)(C)C)[C@@H](NC(=O)c4ccccc4)c4ccccc4)C(C)=C1C3(C)C)[C@]1(OC(C)=O)CO[C@@H]1C[C@@H]2O [2'-(t-butyldimethylsilyl) taxol]
- biological activity [5]: essentially inactive

SMILES: CC(=O)O[C@H]1C(=O)[C@@]2(C)[C@H]([C@H](OC(=O)c3ccccc3)[C@]3(O)C[C@H](OC(=O)[C@H](OC(=O)CCN)[C@@H](NC(=O)c4ccccc4)c4ccccc4)C(C)=C1C3(C)C)[C@]1(OC(C)=O)CO[C@@H]1C[C@@H]2O [2'-(β-alanyl)taxol]
- activity in vivo and in vitro [6]: active in vivo and in vitro
- stability ([7]; Magri and Kingston): unstable

SMILES: CC(=O)O[C@H]1C(=O)[C@@]2(C)[C@H]([C@H](OC(=O)c3ccccc3)[C@]3(O)C[C@H](OC(=O)[C@H](OC(=O)CCS(=O)(=O)O)[C@@H](NC(=O)c4ccccc4)c4ccccc4)C(C)=C1C3(C)C)[C@]1(OC(C)=O)CO[C@@H]1C[C@@H]2O [2'-[(3-sulfo-1-oxopropyl)oxy]taxol sodium salt]
- times more water soluble than taxol [8]: 210 times
- water solubility (in words) ([8]; listed as 2'-[(3-sulfo-l- oxopropyl)oxy]taxol sodium salt, sodium salt): improved water solubility
- water solubility (in words) ([8]; listed as 2'-acryloyltaxol derivative, sodium salt): highest water solubility
- bioactivity [9]: bioactive

SMILES: CC(=O)O[C@H]1C(=O)[C@@]2(C)[C@H]([C@H](OC(=O)c3ccccc3)[C@]3(O)C[C@H](OC(=O)[C@H](OC(C)=O)[C@@H](NC(=O)c4ccccc4)c4ccccc4)C(C)=C1C3(C)C)[C@]1(OC(C)=O)CO[C@@H]1C[C@@H]2O [2'-acetyltaxol]
- activity in a cell culture bioassay [3]: both showed activity in a cell culture bioassay
- hydrolysis of acyl substituents at the 2' position [4]: readily hydrolyzed under in vivo conditions

SMILES: CC(=O)O[C@H]1C(=O)[C@@]2(C)[C@H]([C@H](OC(=O)c3ccccc3)[C@]3(O)C[C@H](OC(=O)[C@H](OC(=O)CCC(=O)O)[C@@H](NC(=O)c4ccccc4)c4ccccc4)C(C)=C1C3(C)C)[C@]1(OC(C)=O)CO[C@@H]1C[C@@H]2O [2'-succinyltaxol]
- P-388 in vivo activity [10]: much diminished P-388 in vivo activity as compared with taxol

SMILES: CC(=O)O[C@H]1C(=O)[C@@]2(C)[C@H]([C@H](OC(=O)c3ccccc3)[C@]3(O)C[C@H](OC(=O)[C@H](OC(=O)CCC(=O)NCCS(=O)(=O)O)[C@@H](NC(=O)c4ccccc4)c4ccccc4)C(C)=C1C3(C)C)[C@]1(OC(C)=O)CO[C@@H]1C[C@@H]2O [2'-{[4-((2-sulfoethyl)amino)-1,4-dioxo-butyl]oxy}taxol sodium salt]
- times more water soluble than taxol [8]: 191 times
- solubilities greater than taxol [8]: more than 100 times
- water solubility (in words) [8]: much greater water solubility than the 3-amino-1-sulfopropionic acid derivative of 2'-succinyltaxol

SMILES: CC(=O)O[C@H]1C(=O)[C@@]2(C)[C@H]([C@H](OC(=O)c3ccccc3)[C@]3(O)C[C@H](OC(=O)[C@H](OC(=O)CCC(=O)NCCCS(=O)(=O)O)[C@@H](NC(=O)c4ccccc4)c4ccccc4)C(C)=C1C3(C)C)[C@]1(OC(C)=O)CO[C@@H]1C[C@@H]2O [2'-{[4-((3-sulfopropyl)-amino)-1,4-dioxobutyl]oxy}taxol sodium salt]
- times more water soluble than taxol [8]: 118 times
- solubilities greater than taxol [8]: more than 100 times

SMILES: CC(=O)O[C@H]1C(=O)[C@@]2(C)[C@H]([C@H](OC(=O)c3ccccc3)[C@]3(O)C[C@H](OC(=O)[C@H](OC(=O)CCCN)[C@@H](NC(=O)c4ccccc4)c4ccccc4)C(C)=C1C3(C)C)[C@]1(OC(C)=O)CO[C@@H]1C[C@@H]2O [2'-γ-aminobutyryltaxol formate, 2'-γ-amino-butyryltaxol formate]
- stability (proton NMR and TLC) [11]: decomposed back to taxol
- stability in methanol solution ([11]; methanol solution): unstable in methanol solution and decomposed back to taxol after a few hours
- water solubility of formate salt [12]: more water soluble than the neutral form

SMILES: CC(=O)O[C@H]1C(=O)[C@@]2(C)[C@H]([C@H](OC(=O)c3ccccc3)[C@]3(O)C[C@H](OC(=O)[C@H](O)[C@@H](NC(=O)c4ccccc4)c4ccccc4)C(C)=C1C3(C)C)[C@]1(OC(C)=O)CO[C@@H]1C[C@@H]2O [Taxol, taxol]
- Relative Solubility (water solubility relative to taxol) [8]: 1
- activity in acute leukemia and melanoma [13]: marginal activity in acute leukemia and melanoma
- activity against drug-refractory ovarian cancer [14]: active agent against drug-refractory ovarian cancer
- effect on microtubule formation [15]: promotes formation of the microtubules
- effect on depolymerization of tubulin ([15]; mitotic spindle microtubules): prevents depolymerization of the tubulin
- activity in tumor systems [16]: has shown activity in several tumor systems
- toxic effects in phase 1 clinical trials [17]: did not show excessive toxic effects
- stability in base ([7]; base): readily hydrolyzed in base
- water solubility of taxol ([2]; background statement): low water solubility

SMILES: CC[C@]1(O)C[C@@H]2CN(CCc3c([nH]c4ccccc34)[C@@](C(=O)OC)(c3cc4c(cc3OC)N(C)[C@H]3[C@@](O)(C(=O)OC)[C@H](OC(C)=O)[C@]5(CC)C=CCN6CC[C@]43[C@@H]65)C2)C1 [vinblastine]
- effect on microtubule formation [15]: prevent microtubule formation
